Numbers after ± are expanded uncertainties.
Experiment: xn = mol fraction of the nth substance listed
Details: 101.3 kPa, Liquid

C=CN1CCCC1=O [N-vinylpyrrolidone] + O
Details | mass density [kg/m3] | speed of sound [m/s] | viscosity [mPa·s]
298.15 K, x2 = 0.0557 | 1042.3 ± 0.77 | 1533.7 ± 6.3 | 4.243 ± 0.097
298.15 K, x2 = 0.1591 | 1043.33 ± 0.77 | 1548.1 ± 6.4 | –
298.15 K, x2 = 0.2543 | 1044.19 ± 0.78 | 1563.3 ± 6.4 | 3.875 ± 0.089
298.15 K, x2 = 0.3503 | 1044.83 ± 0.78 | 1580.9 ± 6.5 | 3.75 ± 0.086
298.15 K, x2 = 0.4525 | 1045.46 ± 0.79 | 1598.7 ± 6.5 | 3.717 ± 0.085
298.15 K, x2 = 0.5028 | 1045.82 ± 0.79 | 1609.9 ± 6.6 | 3.742 ± 0.085
298.15 K, x2 = 0.5539 | 1046.19 ± 0.79 | 1618.5 ± 6.6 | 3.792 ± 0.086
298.15 K, x2 = 0.6546 | 1046.56 ± 0.79 | 1635.8 ± 6.6 | 3.91 ± 0.088
298.15 K, x2 = 0.7505 | 1045.06 ± 0.78 | 1649.2 ± 6.7 | 3.904 ± 0.087
298.15 K, x2 = 0.8519 | 1037.72 ± 0.73 | 1648.2 ± 6.7 | 3.466 ± 0.078
298.15 K, x2 = 0.8751 | 1034.5 ± 0.71 | 1646.7 ± 6.7 | 3.255 ± 0.074
298.15 K, x2 = 0.8852 | 1032.84 ± 0.7 | 1644.4 ± 6.7 | 3.145 ± 0.071
298.15 K, x2 = 0.9001 | 1030.08 ± 0.69 | 1640 ± 6.6 | 2.962 ± 0.067
298.15 K, x2 = 0.9251 | 1024.45 ± 0.65 | 1623.7 ± 6.6 | 2.591 ± 0.059
298.15 K, x2 = 0.9357 | 1021.63 ± 0.63 | 1613.8 ± 6.6 | 2.408 ± 0.056
298.15 K, x2 = 0.9554 | 1015.6 ± 0.6 | 1589.5 ± 6.5 | 2.021 ± 0.047
298.15 K, x2 = 0.9649 | 1012.26 ± 0.57 | 1574.7 ± 6.4 | –
298.15 K, x2 = 0.9749 | 1008.43 ± 0.55 | 1556.5 ± 6.4 | 1.573 ± 0.037
298.15 K, x2 = 0.9903 | 1001.77 ± 0.51 | 1523.1 ± 6.3 | 1.169 ± 0.029
308.15 K, x2 = 0.0557 | 1033.43 ± 0.71 | 1502.5 ± 6.2 | 2.907 ± 0.067
308.15 K, x2 = 0.1591 | 1034.36 ± 0.72 | 1514.3 ± 6.3 | 2.809 ± 0.065
308.15 K, x2 = 0.2543 | 1035.14 ± 0.72 | 1526.7 ± 6.3 | 2.718 ± 0.063
308.15 K, x2 = 0.3503 | 1035.73 ± 0.73 | 1541.2 ± 6.3 | 2.667 ± 0.062
308.15 K, x2 = 0.4525 | 1036.33 ± 0.73 | 1556.2 ± 6.4 | 2.694 ± 0.062
308.15 K, x2 = 0.5028 | 1036.61 ± 0.73 | 1565.6 ± 6.4 | 2.742 ± 0.063
308.15 K, x2 = 0.5539 | 1037.01 ± 0.73 | 1573.3 ± 6.4 | 2.807 ± 0.065
308.15 K, x2 = 0.6546 | 1037.41 ± 0.73 | 1589.3 ± 6.5 | 2.954 ± 0.068
308.15 K, x2 = 0.7505 | 1036.16 ± 0.73 | 1603.4 ± 6.5 | 3.001 ± 0.069
308.15 K, x2 = 0.8519 | 1029.8 ± 0.69 | 1609.5 ± 6.5 | 2.703 ± 0.062
308.15 K, x2 = 0.8751 | 1026.99 ± 0.67 | 1610.5 ± 6.5 | 2.545 ± 0.059
308.15 K, x2 = 0.8852 | 1025.54 ± 0.66 | 1609.8 ± 6.5 | 2.463 ± 0.057
308.15 K, x2 = 0.9001 | 1023.12 ± 0.64 | 1608.2 ± 6.5 | 2.324 ± 0.054
308.15 K, x2 = 0.9251 | 1018.18 ± 0.61 | 1599.1 ± 6.5 | 2.04 ± 0.048
308.15 K, x2 = 0.9357 | 1015.71 ± 0.6 | 1593.2 ± 6.5 | 1.9 ± 0.045
308.15 K, x2 = 0.9554 | 1010.4 ± 0.56 | 1578.2 ± 6.4 | 1.6 ± 0.038
308.15 K, x2 = 0.9649 | 1007.47 ± 0.55 | 1568.8 ± 6.4 | 1.437 ± 0.034
308.15 K, x2 = 0.9749 | 1004.09 ± 0.52 | 1557.1 ± 6.4 | 1.252 ± 0.031
308.15 K, x2 = 0.9903 | 998.206 ± 0.51 | 1535.4 ± 6.3 | 0.932 ± 0.024
318.15 K, x2 = 0.0557 | 1024.6 ± 0.66 | 1470.5 ± 6.1 | 2.552 ± 0.058
318.15 K, x2 = 0.1591 | 1025.41 ± 0.66 | 1480.4 ± 6.1 | 2.454 ± 0.056
318.15 K, x2 = 0.2543 | 1026.11 ± 0.67 | 1490.9 ± 6.2 | 2.362 ± 0.054
318.15 K, x2 = 0.3503 | 1026.63 ± 0.67 | 1503.3 ± 6.2 | 2.305 ± 0.053
318.15 K, x2 = 0.4525 | 1027.16 ± 0.67 | 1516.6 ± 6.3 | 2.31 ± 0.053
318.15 K, x2 = 0.5028 | 1027.46 ± 0.67 | 1524.9 ± 6.3 | 2.34 ± 0.054
318.15 K, x2 = 0.5539 | 1027.78 ± 0.68 | 1532.1 ± 6.3 | 2.385 ± 0.055
318.15 K, x2 = 0.6546 | 1028.14 ± 0.68 | 1547.7 ± 6.4 | 2.488 ± 0.057
318.15 K, x2 = 0.7505 | 1027.08 ± 0.67 | 1563.3 ± 6.4 | 2.509 ± 0.057
318.15 K, x2 = 0.8519 | 1021.56 ± 0.64 | 1576 ± 6.4 | 2.249 ± 0.052
318.15 K, x2 = 0.8751 | 1019.1 ± 0.62 | 1579.4 ± 6.5 | 2.115 ± 0.049
318.15 K, x2 = 0.8852 | 1017.84 ± 0.61 | 1580.1 ± 6.5 | 2.046 ± 0.048
318.15 K, x2 = 0.9001 | 1015.73 ± 0.6 | 1580.9 ± 6.5 | 1.929 ± 0.045
318.15 K, x2 = 0.9251 | 1011.41 ± 0.57 | 1577.9 ± 6.4 | 1.692 ± 0.04
318.15 K, x2 = 0.9357 | 1009.25 ± 0.56 | 1575.3 ± 6.4 | 1.576 ± 0.037
318.15 K, x2 = 0.9554 | 1004.59 ± 0.53 | 1567.9 ± 6.4 | 1.326 ± 0.032
318.15 K, x2 = 0.9649 | 1002.02 ± 0.51 | 1562.9 ± 6.4 | 1.191 ± 0.029
318.15 K, x2 = 0.9749 | 999.05 ± 0.51 | 1556.6 ± 6.4 | 1.037 ± 0.026
318.15 K, x2 = 0.9903 | 993.883 ± 0.54 | 1544.4 ± 6.3 | 0.776 ± 0.02
328.15 K, x2 = 0.0557 | 1015.77 ± 0.6 | 1433 ± 6 | 2.221 ± 0.051
328.15 K, x2 = 0.1591 | 1016.49 ± 0.61 | 1441.7 ± 6 | 2.128 ± 0.049
328.15 K, x2 = 0.2543 | 1017.1 ± 0.61 | 1451.2 ± 6.1 | 2.042 ± 0.047
328.15 K, x2 = 0.3503 | 1017.56 ± 0.61 | 1462.3 ± 6.1 | 1.983 ± 0.046
328.15 K, x2 = 0.4525 | 1018.03 ± 0.62 | 1474.7 ± 6.1 | 1.975 ± 0.046
328.15 K, x2 = 0.5028 | 1018.3 ± 0.62 | 1482.4 ± 6.2 | 1.993 ± 0.046
328.15 K, x2 = 0.5539 | 1018.58 ± 0.62 | 1489.6 ± 6.2 | 2.025 ± 0.047
328.15 K, x2 = 0.6546 | 1018.91 ± 0.62 | 1505.7 ± 6.2 | 2.096 ± 0.049
328.15 K, x2 = 0.7505 | 1018 ± 0.61 | 1523.4 ± 6.3 | 2.103 ± 0.049
328.15 K, x2 = 0.8519 | 1013.18 ± 0.58 | 1542.9 ± 6.3 | 1.876 ± 0.044
328.15 K, x2 = 0.8751 | 1011.04 ± 0.57 | 1548.6 ± 6.4 | 1.763 ± 0.041
328.15 K, x2 = 0.8852 | 1009.94 ± 0.56 | 1550.7 ± 6.4 | 1.705 ± 0.04
328.15 K, x2 = 0.9001 | 1008.09 ± 0.55 | 1553.7 ± 6.4 | 1.609 ± 0.038
328.15 K, x2 = 0.9251 | 1004.31 ± 0.53 | 1556.2 ± 6.4 | 1.411 ± 0.034
328.15 K, x2 = 0.9357 | 1002.41 ± 0.52 | 1556.5 ± 6.4 | 1.314 ± 0.032
328.15 K, x2 = 0.9554 | 998.333 ± 0.51 | 1556.6 ± 6.4 | 1.108 ± 0.027
328.15 K, x2 = 0.9649 | 996.075 ± 0.52 | 1554.4 ± 6.4 | 0.995 ± 0.025
328.15 K, x2 = 0.9749 | 993.467 ± 0.54 | 1552.6 ± 6.4 | 0.868 ± 0.022
328.15 K, x2 = 0.9903 | 988.924 ± 0.57 | 1548.5 ± 6.3 | 0.652 ± 0.017
338.15 K, x2 = 0.0557 | 1006.93 ± 0.55 | 1406 ± 5.9 | 1.807 ± 0.043
338.15 K, x2 = 0.1591 | 1007.56 ± 0.55 | 1413.8 ± 5.9 | 1.736 ± 0.041
338.15 K, x2 = 0.2543 | 1008.1 ± 0.56 | 1422.3 ± 6 | 1.668 ± 0.04
338.15 K, x2 = 0.3503 | 1008.51 ± 0.56 | 1432.4 ± 6 | 1.624 ± 0.039
338.15 K, x2 = 0.4525 | 1008.92 ± 0.56 | 1444.1 ± 6 | 1.621 ± 0.039
338.15 K, x2 = 0.5028 | 1009.15 ± 0.56 | 1451.3 ± 6.1 | 1.639 ± 0.039
338.15 K, x2 = 0.5539 | 1009.4 ± 0.56 | 1458.3 ± 6.1 | 1.667 ± 0.04
338.15 K, x2 = 0.6546 | 1009.7 ± 0.56 | 1474.6 ± 6.1 | 1.73 ± 0.041
338.15 K, x2 = 0.7505 | 1008.9 ± 0.56 | 1493.7 ± 6.2 | 1.739 ± 0.041
338.15 K, x2 = 0.8519 | 1004.69 ± 0.53 | 1517.9 ± 6.3 | 1.557 ± 0.037
338.15 K, x2 = 0.8751 | 1002.82 ± 0.52 | 1525.2 ± 6.3 | 1.466 ± 0.035
338.15 K, x2 = 0.8852 | 1001.85 ± 0.51 | 1528.2 ± 6.3 | 1.42 ± 0.034
338.15 K, x2 = 0.9001 | 1000.23 ± 0.5 | 1532.8 ± 6.3 | 1.34 ± 0.032
338.15 K, x2 = 0.9251 | 996.917 ± 0.52 | 1539.1 ± 6.3 | 1.18 ± 0.029
338.15 K, x2 = 0.9357 | 995.252 ± 0.53 | 1541.5 ± 6.3 | 1.1 ± 0.027
338.15 K, x2 = 0.9554 | 991.671 ± 0.55 | 1545.5 ± 6.3 | 0.931 ± 0.023
338.15 K, x2 = 0.9649 | 989.687 ± 0.56 | 1547 ± 6.3 | 0.84 ± 0.021
338.15 K, x2 = 0.9749 | 987.393 ± 0.58 | 1548.4 ± 6.3 | 0.736 ± 0.019
338.15 K, x2 = 0.9903 | 983.396 ± 0.6 | 1550.2 ± 6.4 | 0.56 ± 0.015
